Results: patent US20230201290A1, “TGF-BETA INHIBITION, AGENTS AND COMPOSITION THEREFOR” (GMP BIOTECHNOLOGY LIMITED, priority 2020, published 2023)

Experiments:
TGF-β2 secretion = TGF-β2 secretion in human tumor cell lines; assay type: cell-based; conditions: human HGG cell line A-172, 7 days, 10 trabedersen (unit not given)
Description: The effect of trabedersen on TGF-β2 secretion was analyzed in cell lines of human HGG, human pancreatic carcinoma, malignant melanoma, colorectal carcinoma, and other tumors (prostate carcinoma, renal cell carcinoma, and non-small cell lung carcinoma). The TGF-β2 concentration in cell culture supernatants after treatment with trabedersen for 7 days was analyzed.
The biological activity of truncated trabedersen, i.e. metabolites, in comparison to full-length trabedersen with respect to inhibition of TGF-β2 secretion was tested in the human HGG cell line A-172.

[1] = test system: patient derived autologous HGG cells; assay: LAK cell-mediated autologous cytotoxicity (calcein-release assay); assay type: cell-based, human; conditions: untreated control 16%
Description: Human HGG cells were obtained from surgical specimens of 5 patients. PBMCs from these patients were activated with human recombinant IL-2 to generate lymphokine-activated killer (LAK) cells as effector cells, which are known to lyse most autologous and allogenic fresh human tumor cells. LAK cell-mediated cytotoxicity against the patient derived autologous HGG cells (target cells) was tested in a cell co-culture system using the calcein-release assay.

human PBMCs = assay: Viability and proliferation of human PBMCs; assay type: cell-based
Description: Cell viability was assessed following treatment of human PBMCs with trabedersen in vitro using the Trypan blue exclusion test. Freshly isolated, IL-2 activated PBMCs from healthy donors and HGG patients were incubated either without trabedersen or with 1, 5, 10 or 80 μM trabedersen for 2, 3, 6, 7, 14, and 21 day. […] There was no difference in cell viability between untreated and trabedersen treated cells.

[2] = Toxicology in monkeys (LOAEL); assay type: in vivo
solid tumors = assay: Phase I/II study P001, i.v. trabedersen: all patients, MTD and DLT; assay type: in vivo, human
Source text: (§1) P001 is a completed Phase I/II dose escalation study. Primary objective is the determination of the MTD as well as the DLT of 2 cycles as core treatment and up to 8 optional extension cycles of trabedersen administered i.v. for 4 or 7 d every other week, as described in the following. The study followed a classical cohort design with 3 evaluable patients per cohort. Patients treated with the 1st schedule received trabedersen continuously for 7 d, followed by a treatment-free interval of 7 d for each treatment cycle (7-d-on, 7-d-off). After the MTD had been reached for this schedule, a 2nd schedule of 4 d trabedersen administration, followed by a treatment-free interval of 10 d for each treatment cycle was started (4-d-on, 10-d-off). In this treatment schedule the MTD has not been reached.
Primary objective of the study is the determination of the maximum tolerated dose (MTD) as well as the dose limiting toxicity (DLT) of two cycles of Trabedersen administered every other week. Secondary objectives include safety and tolerability, pharmacokinetic profile and potential antitumor activity of intravenous Trabedersen treatment.
Trabedersen was administered as i.v. continuous infusion for 4 or 7 days every other week via an implanted subcutaneous port system connected to a portable pump and with a flow rate of 0.8 mL/h. The core treatment consisted of 2 treatment cycles. Up to 8 optional extension cycles were administered in case of clinical benefit.
The dose escalation followed a classical cohort design with at least 3 and up to 6 patients per cohort receiving Trabedersen. The starting dose was chosen based on the Lowest-Observed-Adverse-Effect Level (LOAEL) determined in monkeys as the most relevant species. […] The Data and Safety Monitoring Board (DSMB) regularly reviewed available safety and efficacy data before each escalation step. Generally, if patients of one cohort had tolerated the therapy, the next cohort received the next higher dose. Toxicity was assessed based on National Cancer Institute-Common Toxicity Criteria (NCI-CTC, version 2). A DLT was defined as an at least possibly related, medically important adverse event, of NCI-CTC grade 3 or 4, a worsening by ≥2 grades from baseline for renal or hepatic toxicities, a worsening by ≥3 grades from baseline for other laboratory parameters, or other toxicities considered dose-limiting by the investigator. If more than 2 patients of a cohort had DLTs, the next lower dose was defined as MTD. Dose-escalation had to be stopped if MTD was reached.
(§2) The overall survival is calculated for all patients as the survival time from the onset of treatment with study medication to death due to any cause and analyzed with the Kaplan-Meier method.
Altogether 33 patients with advanced pancreatic cancer, malignant melanoma, or colorectal cancer were enrolled for dose escalation (Table 15). Patients treated in the first treatment schedule received Trabedersen continuously for 7 days, followed by a treatment-free interval of 7 days for each treatment cycle (7-days-on, 7-days-off).
After the MTD had been reached in the 7-days-on, 7-days-off schedule, a second dose escalation was started using a modified treatment schedule with 4 days Trabedersen administration, followed by a treatment-free interval of 10 days for each treatment cycle (4-days-on, 10-days-off).

malignant melanoma = assay: Phase I/II study P001: patients with malignant melanoma; assay type: in vivo, human
colorectal cancer = assay: Phase I/II study P001: patients with colorectal cancer; assay type: in vivo, human; conditions: all colorectal patients independent of dose and schedule
Source text: as §1
Trabedersen was administered as i.v. continuous infusion for 4 or 7 days every other week via an implanted subcutaneous port system connected to a portable pump and with a flow rate of 0.8 mL/h. […]
as §2
One patient with AJCC Stage IV colorectal cancer treated in the 240 mg/m^2/day cohort of the 7-day-on, 7-day-off schedule was assessed with stable disease and survived for 7.3 months. […]

IL-6 = conditions: data-mining of P001 cytokine profiling
C8161 human melanoma = assay: Orthotopic C8161 human melanoma model; conditions: group 2: 16 mg/kg SC 3 times/week
[3] = 4-days-on, 10-days-off, 140 mg/m^2/day

**Q.** For “cggcatgtct attttgta (antisense CGGCATGTCTATTTTGTA; chemistry not given here) [OT-101]”, which “highest inhibitory effect on TGF-β2 secretion” value (TGF-β2 secretion) is on record?
**A.** 64%

**Q.** What about the “autologous cytotoxicity against human HGG cells, mean” value [1] of the same substance?
**A.** 40%

**Q.** What about the “PBMC proliferation, of untreated control cells” value (human PBMCs; 80 μM, 7 days) of the same substance?
**A.** 67%

**Q.** And the “effects on the viability of PBMCs” value (human PBMCs; 1, 5, 10 or 80 μM, up to 21 day, Trypan blue)?
**A.** No relevant effects

**Q.** And the “Proliferation of PBMCs” value (human PBMCs; 5, 10 or 50μM)?
**A.** within the range of variation

**Q.** What about the “Lowest-Observed-Adverse-Effect Level (LOAEL), equivalent in human adults” value [2] of the same substance?
**A.** 48 mg/m^2/day

**Q.** What about the “Dose limiting toxicities (NCI-CTC grade)” value (solid tumors; [3]) of the same substance?
**A.** — 1 gastrointestinal bleeding (3)

**Q.** And the “Median Overall Survival, All patients” value (solid tumors; [3])?
**A.** 14.5 months

**Q.** And the “Median Overall Survival, All patients” value (solid tumors; 4-days-on, 10-days-off, 140 mg/m^2/day (additional patients))?
**A.** 6.0^2 months

**Q.** What about the “Median Overall Survival, All patients” value (solid tumors; 4-days-on, 10-days-off, 190 mg/m^2/day) of the same substance?
**A.** 9.3 months

**Q.** And the “Median Overall Survival, All patients” value (solid tumors; 4-days-on, 10-days-off, 250 mg/m^2/day)?
**A.** 9.8 months

**Q.** What about the “Median Overall Survival, All patients” value (solid tumors; 4-days-on, 10-days-off, 330 mg/m^2/day) of the same substance?
**A.** 3.0 months

**Q.** And the MTD (solid tumors; 4-days-on, 10-days-off, 140 to 330 mg/m^2/day)?
**A.** without reaching an MTD

**Q.** What about the MTD (solid tumors; 7-days-on, 7-days-off schedule) of the same substance?
**A.** 160 mg/m^2/day

**Q.** What about the “Median Overall Survival, All patients” value (solid tumors; 7-days-on, 7-days-off, 40 mg/m^2/day) of the same substance?
**A.** 6.9 months

**Q.** What about the “Median Overall Survival, All patients” value (solid tumors; 7-days-on, 7-days-off, 80 mg/m^2/day) of the same substance?
**A.** 9.2 months

**Q.** And the “Median Overall Survival, All patients” value (solid tumors; 7-days-on, 7-days-off, 160 mg/m^2/day)?
**A.** 2.9 months

**Q.** And the “Median Overall Survival, All patients” value (solid tumors; 7-days-on, 7-days-off, 240 mg/m^2/day)?
**A.** 6.5 months

**Q.** What about the “Dose limiting toxicities (NCI-CTC grade)” value (solid tumors; 7-days-on, 7-days-off, 240 mg/m^2/day, listed as Trabedersen) of the same substance?
**A.** 2 thrombocytopenias, 1 exanthema and — 1 exanthema (3) and — 2 thrombocytopenias (3)

**Q.** What about the Survival (malignant melanoma; 4-days-on, 10-days-off schedule) of the same substance?
**A.** 11.4 months

**Q.** What about the mOS (malignant melanoma; 4-days-on, 10-days-off, with subsequent therapies) of the same substance?
**A.** 13.5 months

**Q.** What about the mOS (malignant melanoma; 4-days-on, 10-days-off, without subsequent therapies) of the same substance?
**A.** 6.0 months

**Q.** And the Survival (malignant melanoma; 7-days-on, 7-days-off schedule)?
**A.** 7.8 months

**Q.** And the mOS (malignant melanoma; 14 additional patients, 140 mg/m^2/day, 4-days-on, 10-days-off)?
**A.** 10.4 months

**Q.** What about the mOS (malignant melanoma; all melanoma patients independent of dose and schedule) of the same substance?
**A.** 11.4 months

**Q.** And the mOS (malignant melanoma; last cohort 140 mg/m2/day, followed by subsequent therapy)?
**A.** 13.5 months

**Q.** And the mOS (malignant melanoma; last cohort 140 mg/m2/day, no subsequent therapy)?
**A.** 6.0 months

**Q.** And the mOS (malignant melanoma; melanoma patients of dose escalation)?
**A.** 13.8 months

**Q.** And the mOS (malignant melanoma; two patients, 2nd-line, 140 mg/m^2/day 4-on/10-off)?
**A.** 9.5 months

**Q.** And the mOS (colorectal cancer)?
**A.** 3.0 months

**Q.** What about the “SI=CC50/EC50” value (SARS-COV-2 USA_WA1/2020; SARS-CoV-2) of the same substance?
**A.** >500

**Q.** And the “SI (CC50/EC50)” value (SARS-COV-2 USA_WA1/2020; SARS-CoV-2, Vero 76 cells)?
**A.** >500

**Q.** What about the “EC50: 50% effective antiviral concentration” value (SARS-COV-2 USA_WA1/2020; SARS-CoV-2 USA_WA1/2020, Vero 76, CPE neutral red, day 5) of the same substance?
**A.** 2.0 µg/mL

**Q.** What about the EC50 (SARS-COV-2 USA_WA1/2020; read-out: EC50 (value in brackets), SARS-CoV-2 USA_WA1/2020, Vero 76) of the same substance?
**A.** 330 nM

**Q.** And the CC50 (Vero 76 cells)?
**A.** > 1000 µg/mL

**Q.** And the “Toxicity at the highest dose” value (Vero 76 cells; 1000 μg/ml)?
**A.** not toxic

**Q.** What about the “signal of cytokine storm following treatment” value (IL-6) of the same substance?
**A.** no signal of cytokine storm

**Q.** And the “Tumor growth suppressed versus control group 1 on day 42” value (C8161 human melanoma)?
**A.** 2%
